Data published in US10238635B2, “N-carbamoylated urethane for treating a neuroinflammatory disease” (Kyungpook National University Industry—Academic Cooperation …, priority 2016, dated 2019).
Entries after “also recorded” stand apart in the source; their conditions may differ. One block for each compound: values may come before it.

Assays:
BV-2 microglial cells [1] = experiment: LPS-induced NO production in BV-2 microglial cells (Griess, nitrite); format: cell-based, murine; conditions: LPS 100 ng/ml; for inhibition at 10 µM: Mus musculus, BV-2 microglial cells, 10 μM compound, LPS-increased NO production = 100%
Method: (§1) BV-2 cells, a murine microglial cell line, were cultured in Dulbecco's modified Eagle's medium (DMEM) containing 5% heat-inactivated FBS and 50 μg/ml gentamicin at 37° C. Rat microglial HAPI cells and mouse primary astrocytes were cultured in DMEM (10% FBS, 10 U/ml penicillin, 10 μg/ml streptomycin) at 37° C. All animals and experimental procedures were approved by the Institutional Review Board of Kyungpook National University School of Pharmacy and were carried out in accordance with the NIH Guide for the Care and Use of Laboratory Animals. All animals were maintained under temperature- and humidity-controlled conditions.
(§2) The production of nitric oxide (NO) was estimated by measuring the amount of nitrite, which is a NO metabolite. The BV-2 cells (40,000 cells/well in 96-well plates) were treated with 100 ng/ml of LPS in the presence or absence of the compounds from the library. At the end of a 24 hour incubation period, 50 μl of the cell culture media was mixed with an equal volume of a Griess reagent in each well. The light absorbance was measured at 540 nm, while a standard curve was generated using sodium nitrite.
(§3) Specifically, the BV-2 cells were cultured in 96-well plates and stimulated with LPS at a concentration of 100 ng/ml. The BV-2 cells stimulated with LPS were treated with 3,500 low molecular weight substances (FIG. 1).
While an increased NO production by LPS is designated as 100%, a suppressed amount of NO production by each derivative of Compound 1 is presented by its respective percentage.

BV-2 cells = experiment: Cell viability, MTT assay; format: cell-based, murine
Method: Cell viability was assessed using MTT assay. After treatment with LPS and the compounds, the culture solution was aspirated and removed. MTT (0.5 mg/ml in PBS) was added to the cells and incubated at 37° C. for 4 hours. The resulting formazan was dissolved in DMSO. The absorbance was determined at 570 nm using a microplate reader.
as §3

[2] = Brain distribution and half-life after intraperitoneal administration; format: in vivo; conditions: 2 mg/kg, previous study by the inventors
astrocytes = experiment: NO, TNF-α production and Ym-1 expression in astrocytes; format: cell-based, mouse
Method: as §1
The mouse primary microglial cells were cultured under mild conditions according to known methods. In brief, the forebrains of 3-5 day-old C57BL/6 mice were harvested and mechanically pulverized using a nylon mesh. The cells were seeded onto a poly-L-lysine-coated flasks and then cultured. After in vitro culture of 10-14 days, the microglial cells were isolated from the mixed glial cultures by shaking for 6 hours at 200 rpm. Astrocytes remained attached to the bottom of the culture flask were used for the following experiments. 3. High Throughput Screening
as §2, with “At the end of a 24 hour incubation period, 50 μl of the cell culture media was mixed with an equal volume of a Griess reagent in each well.” left out
The BV-2 cells or astrocytes were treated with LPS and Compound 1, followed by culturing for 24 hours. The TNF-α levels in the culture media were measured using a rat monoclonal anti-mouse TNF-α antibody as a primary antibody and a goat anti-mouse TNF-α antibody as a secondary antibody.
Total RNA was extracted from microglial cells or brain tissues using TRIZOL reagent (Invitrogen, Carlsbad, Calif., USA). […] For the PCR product analysis, 10 μl of each PCR reaction was electrophoresed on 1% agarose gel and detected under ultraviolet light. […]

[3] = tested on: HAPI rat microglial cells; experiment: LPS-induced NO release in HAPI cells; format: cell-based; conditions: various concentrations, 24 hours
Method: as §1
(§4) The present inventors confirmed the anti-neuroinflammatory effect of Compound 1, which was identified in Example 1, in the HAPI rat microglial cells and the RAW264.7 macrophage cells. The cells were cultured in 96-well plates, followed by treatment with various concentrations of Compound 1 with LPS, respectively. After 24 hours of such a treatment, NO release was examined.

[4] = tested on: LPS-induced mouse neuroinflammation model; experiment: LPS-induced mouse neuroinflammation model (Iba-1 immunostaining, real-time RT-PCR of brain); format: in vivo, C57BL/6 mice; conditions: 72 h after LPS
Method: (§5) Total RNA was extracted from microglial cells or brain tissues using TRIZOL reagent (Invitrogen, Carlsbad, Calif., USA). Reverse transcription (RT) was performed using Superscript II reverse transcriptase (Invitrogen) and Oligo (dT) primers. Traditional polymerase chain reaction (PCR) amplification was performed using specific primer sets at annealing temperature 55-60° C. for 20-30 cycles. PCR was performed using C1000 Touch Thermal Cycler. For the PCR product analysis, 10 μl of each PCR reaction was electrophoresed on 1% agarose gel and detected under ultraviolet light.
(§6) Real-time RT-PCR was performed using Perfect Real-Time One Step SYBR Primer Script RT-PCR Kit (Takara Bio, Otsu, Shiga, Japan).
LPS was intraperitoneally administered according to a conventionally known method for producing neuroinflammatory mouse model. All experiments were performed on C57BL/6 mice aged 9-11 weeks, and the animals were supplied from Koatech. In each experiment, the animals were divided into four groups (Group 1, vehicle-treated group; Group 2, Compound 1-treated group; Group 3, LPS & vehicle-treated group; Group 4, LPS & Compound 1-treated group). Compound 1 (2 mg/kg) was dissolved in saline containing 5% DMSO and 40% polyethylene glycol and administered intraperitoneally daily for 4 days. LPS (5 mg/kg) induced a neuroinflammatory animal model by intraperitoneally administering its single dose on the second day.
For histological analysis, 72 hours after the administration of LPS, the animals were anesthetized and perfused transcardially first with saline and then with 4% paraformaldehyde. The activity of microglial cells was evaluated using Iba-1 staining. At least three animals were included in each experimental group. […]
The mice were then sacrificed, and the Iba-1 levels were analyzed as molecular markers of microglia activation (FIG. 6B).
The Iba-1-stained cells whose intensity values were above an arbitrarily defined threshold were counted from each of three brain regions, including the cortex, hippocampus, and substantia nigra.

BV-2 microglial cells [5] = experiment: RT-PCR of LPS-induced pro-inflammatory gene expression in BV-2 cells; format: cell-based, murine; conditions: pre-treatment
Method: as §5, §6
The primer sequences were designed based on published cDNA sequences (See Table 1).
Next, the effect of Compound 1 on the LPS-induced expression of pro-inflammatory mediators was examined in the BV-2 microglial cells.

[6] = tested on: RAW264.7 macrophage cells; experiment: LPS-induced NO release in RAW264.7 cells; format: cell-based; conditions: various concentrations, 24 hours
Method: as §4

[7] = 2 mg/kg i.p., LPS 5 mg/kg, real-time RT-PCR

SMILES: CCC(OC(=O)N(Cc1ccccc1)C(=O)Nc1ccc(OC)c(OC)c1)c1cc(-c2ccc(OC(C)(C)C(=O)O)cc2)no1 (centres unmarked) [3,4-dimethoxy, 2-(4-(5-(1-((benzyl((3,4-dimethoxymethylphenyl)carbamoyl)carbamoyl)oxy)propyl)isoxazol-3-yl)phenoxy)-2-methylpropanoic acid]
inhibition at 10 µM (BV-2 microglial cells [1]): 60.7%

SMILES: CCC(OC(=O)N(Cc1ccccc1)C(=O)Nc1ccc2c(c1)OCO2)c1cc(-c2ccc(OC(C)(C)C(=O)O)cc2)no1 (centres unmarked) [3,4-methylenedioxy]
inhibition at 10 µM (BV-2 microglial cells [1]): 74.6%

SMILES: CCC(OC(=O)N(Cc1ccccc1)C(=O)Nc1cc(OC)cc(OC)c1)c1cc(-c2ccc(OC(C)(C)C(=O)O)cc2)no1 (centres unmarked) [3,5-dimethoxy]
inhibition at 10 µM (BV-2 microglial cells [1]): 56.7%

SMILES: CCC(OC(=O)N(Cc1ccccc1)C(=O)Nc1ccc(C(F)(F)F)cc1)c1cc(-c2ccc(OC(C)(C)C(=O)O)cc2)no1 (centres unmarked) [4-trifluoromethyl, 2-(4-(5-(1-((benzyl((4-trifluoromethylphenyl)carbamoyl)carbamoyl)oxy)propyl)isoxazol-3-yl)phenoxy)-2-methylpropanoic acid]
inhibition at 10 µM (BV-2 microglial cells [1]): 52.7%

brain distribution [2]: 0.19 µg/h/mL
half-life ([2]; brain, ip): 5.23 h
SMILES: CCC(OC(=O)N(Cc1ccccc1)C(=O)Nc1ccccc1)c1cc(-c2ccc(OC(C)(C)C(=O)O)cc2)no1 (centres unmarked) [Compound 1, 2-(4-(5-(1-((benzyl(phenylcarbamoyl)carbamoyl)oxy)propyl)isoxazol-3-yl)phenoxy)-2-methylpropanoic acid]
cytotoxicity (BV-2 cells): low in cytotoxicity
IL-4-induced Ym-1 expression in astrocytes (astrocytes; IL-4): increasing
LPS-induced NO production in astrocytes (astrocytes; LPS): inhibited
LPS-induced TNF-α production in astrocytes (astrocytes; LPS): inhibited
LPS-induced NO release [3]: inhibits the LPS-induced NO release in the microglial and macrophage cells in a dose-dependent manner
LPS-induced microglial activation (Iba-1 positive cells) ([4]; 2 mg/kg i.p. daily for 4 days, LPS 5 mg/kg i.p., cortex, hippocampus, substantia nigra): significantly reduced; also recorded: effectively blocked
expression level of IL-1β mRNA in brain [4, 7]: significantly diminished
expression level of TNF-α mRNA in brain [4, 7]: significantly diminished
expression of IL-1β gene (BV-2 microglial cells [5]): significantly reduced
expression of TNF-α gene (BV-2 microglial cells [5]): significantly reduced
expression of iNOS gene (BV-2 microglial cells [5]): significantly reduced
inhibition of NO production in microglial cells (high-throughput screening) (BV-2 microglial cells [1]; BV-2 cells): effectively inhibiting NO production
inhibition at 10 µM (BV-2 microglial cells [1]): 73.4%
LPS-induced NO release [6]: inhibits the LPS-induced NO release in the microglial and macrophage cells in a dose-dependent manner

SMILES: CCC(OC(=O)N(Cc1ccccc1)C(=O)Nc1ccccc1OC)c1cc(-c2ccc(OC(C)(C)C(=O)O)cc2)no1 (centres unmarked) [Compound 2-methoxy, 2-(4-(5-(1-((benzyl((2-methoxyphenyl)carbamoyl)carbamoyl)oxy)propyl)isoxazol-3-yl)phenoxy)-2-methylpropanoic acid]
inhibition at 10 µM (BV-2 microglial cells [1]): 20.9%

SMILES: CCC(OC(=O)N(Cc1ccccc1)C(=O)Nc1cccc(OC)c1)c1cc(-c2ccc(OC(C)(C)C(=O)O)cc2)no1 (centres unmarked) [Compound 3-methoxy, 2-(4-(5-(1-((benzyl((3-methoxyphenyl)carbamoyl)carbamoyl)oxy)propyl)isoxazol-3-yl)phenoxy)-2-methylpropanoic acid]
inhibition at 10 µM (BV-2 microglial cells [1]): 25.6%

SMILES: CCC(OC(=O)N(Cc1ccccc1)C(=O)Nc1ccc(Cl)cc1)c1cc(-c2ccc(OC(C)(C)C(=O)O)cc2)no1 (centres unmarked) [Compound 4-chloro]
inhibition at 10 µM (BV-2 microglial cells [1]): 67.8%

SMILES: CCC(OC(=O)N(Cc1ccccc1)C(=O)Nc1ccc(OC)cc1)c1cc(-c2ccc(OC(C)(C)C(=O)O)cc2)no1 (centres unmarked) [Compound 4-methoxy, 2-(4-(5-(1-((benzyl((4-methoxyphenyl)carbamoyl)carbamoyl)oxy)propyl)isoxazol-3-yl)phenoxy)-2-methylpropanoic acid]
inhibition at 10 µM (BV-2 microglial cells [1]): 46.7%

SMILES: CCC(OC(=O)N(Cc1ccccc1)C(=O)Nc1ccc(C)cc1)c1cc(-c2ccc(OC(C)(C)C(=O)O)cc2)no1 (centres unmarked) [Compound 4-methyl, 2-(4-(5-(1-((benzyl((4-methylphenyl)carbamoyl)carbamoyl)oxy)propyl)isoxazol-3-yl)phenoxy)-2-methylpropanoic acid]
inhibition at 10 µM (BV-2 microglial cells [1]): 46.7%

SMILES: CCCCc1ccc(NC(=O)N(Cc2ccccc2)C(=O)OC(CC)c2cc(-c3ccc(OC(C)(C)C(=O)O)cc3)no2)cc1 (centres unmarked) [Compound 4-n-butyl, 2-(4-(5-(1-((benzyl((4-n-butylmethylphenyl)carbamoyl)carbamoyl)oxy)propyl)isoxazol-3-yl)phenoxy)-2-methylpropanoic acid]
inhibition at 10 µM (BV-2 microglial cells [1]): 58.3%
